# Where a SMILES comes first, the peptide text is derived from it. Bridges are numbered along the chain shown (N, C = ends). [ ]: non-standard residue; d: D form. 1Nal = N[C@@H](Cc1cccc2ccccc12)C(=O)O; Nle = CCCC[C@H](N)C(=O)O
# Assays:
# MC4-R [1] = target: T1, MC4-R (Homo sapiens, UniProt P32245); assay: Competitive inhibition binding assay using [I125]-NDP-α-MSH, hMC4-R; details: radioligand [I125]-NDP-α-MSH, HEK-293 membranes; read-out: Ki (NDP-α-MSH) MC4-R
# T1 construct: expressed in transfected cells; host or cells: HEK-293
# Procedure: (§1) The assay tube also contained a chosen concentration of the test peptide of this invention, typically a 1 μM concentration, for determining its efficacy in inhibiting the binding of [I^125]NDP-α-MSH to the receptor.
# (§2) The assay mixture was incubated for 60 minutes at 37° C., then filtered and the membranes washed three times with ice cold phosphate buffered saline. The filter was dried and counted in a gamma counter for remaining radioactivity bound to the membranes. 100% specific binding was defined as the difference in radioactivity (cpm) bound to cell membranes in the absence and presence of 1 μM NDP-α-MSH. […] Each assay was conducted in triplicate. The Ki (nM) of certain peptides of the invention were determined using similar assay protocols and testing peptides over a wider dose range.
# hMC3-R (HEK-293 cells) = target: T2, hMC3-R (HEK-293 cells) (Homo sapiens, UniProt P41968); assay: cAMP functional assay for agonist/antagonist status, MC3-R; assay type: cell-based; details: for EC50: cAMP accumulation; for agonist/antagonist status as to MC3-R: cAMP assay; for efficacy relative to NDP-α-MSH, MC3-R: cAMP response ratio to NDP-α-MSH
# T2 construct: expressed in transfected cells; host or cells: HEK-293
# Procedure: (§3) Functional evaluation of peptides at melanocortin receptors was performed by measuring the accumulation of intracellular cAMP in HEK-293 cells expressing hMC3-R, hMC4-R or hMC5-R, and in B-16 mouse melanoma cells expressing MC1-R. Cells suspended in Earle's Balanced Salt Solution containing 10 mM HEPES (pH 7.5), 5 mM MgCl2, 1 mM glutamine, 0.5% albumin and 0.3 mM 3-isobutyl-1-methyl-xanthine, a phosphodiesterase inhibitor, were plated in 96 well plates at a density of 0.5×10^5 cells per well. Cells were incubated with the test peptides in the presence or absence of NDP-α-MSH for 1 hour at 37° C. cAMP levels in the cell lysates were measured using an EIA kit (Amersham). Data analysis and EC50 values were determined using nonlinear regression analysis with Prism Graph-Pad software.
# (§4) The agonist/antagonist status with respect to MC1-R, MC4-R and MC5-R of certain peptides of the invention was determined. Antagonistic activity was determined by measuring the inhibition of α-MSH-induced or NDP-α-MSH-induced cAMP levels following exposure to the peptides as in the preceding descriptions.
# MC4-R [2] = target: T1, MC4-R; assay: Competitive inhibition Ki (AgRP), MC4-R; assay type: binding; details: AgRP as competing ligand
# hMC5-R = target: T3, hMC5-R (Homo sapiens, UniProt P33032); assay: Competitive inhibition binding assay using [I125]-NDP-α-MSH, hMC5-R; details: radioligand [I125]-NDP-α-MSH, HEK-293 membranes; read-out: Ki (NDP-α-MSH) MC5-R
# T3 construct: expressed in transfected cells; host or cells: HEK-293
# Procedure: as §1, §2
# MC3-R [3] = target: T4, MC3-R (Homo sapiens, UniProt P41968); assay: Competitive inhibition binding assay using [I125]-NDP-α-MSH, hMC3-R; details: radioligand [I125]-NDP-α-MSH, HEK-293 membranes; read-out: Ki (NDP-α-MSH) MC3-R
# T4 construct: expressed in transfected cells; host or cells: HEK-293
# Procedure: as §1, §2
# MC3-R [4] = target: T4, MC3-R; assay: Competitive inhibition Ki (AgRP), MC3-R; assay type: binding; details: AgRP as competing ligand
# Procedure: as §2
# hMC4-R (HEK-293 cells) = target: T5, hMC4-R (HEK-293 cells) (Homo sapiens, UniProt P32245); assay: cAMP functional assay for agonist/antagonist status, MC4-R; assay type: cell-based; details: for EC50: cAMP accumulation; for agonist/antagonist status as to MC4-R: cAMP assay; for efficacy relative to NDP-α-MSH, MC4-R: cAMP response ratio to NDP-α-MSH
# T5 construct: expressed in transfected cells; host or cells: HEK-293
# Procedure: as §3, §4
# Evaluation of the molecules to elicit a functional response in HEK-293 cells expressing hMC4-R for agonistic activity was done by measuring the accumulation of intracellular cAMP following treatment. Confluent HEK-293 cells over-expressing MC4-R receptors were detached by enzyme free cell suspension buffer. Cells were suspended in Earle's Balanced Salt Solution containing 10 mM HEPES (pH 7.5), 1 mM MgCl2, 1 mM glutamine, 0.5% albumin and 0.3 mM 3-isobutyl-1-methyl-[…]. The cells were plated in a 96 well plate at a density of 0.5×10^5 cells per well and pre-incubated for 60 minutes. The cells were then challenged with the test peptides dissolved in dimethylsulfoxide (DMSO) at a concentration range of 0.05-5000 nM in a total assay volume of 200 μL for 1 hour at 37° C. The concentration of DMSO was held at 1% in the assay mixture. NDP-α-MSH was used as the reference agonist. At the end of the incubation period the cells were disrupted by the addition of 50 μL lysis buffer from the cAMP EIA kit (Amersham). Complete rupture of the cells was ensured by pipetting the cells. cAMP levels in the cell lysates were measured after appropriate dilution using the EIA kit (Amersham) method. Data analysis and EC50 values were determined by using nonlinear regression analysis with the Prism Graph-Pad software.
# male Sprague-Dawley rats = assay: Penile erection induction in male rats; assay type: in vivo, rat
# Procedure: The ability of peptides to induce penile erection (PE) in male rats was evaluated with selected peptides. Male Sprague-Dawley rats weighing 200-250 g were kept on a 12 hour on/off light cycle with food and water ad libitum. All behavioral studies were performed between 10 a.m. and 5 p.m. Groups of 4-8 rats were administered peptides at a variety of doses via an intravenous (IV) route, and may alternatively be administered peptide by an intracerebroventricular (ICV) route. Immediately after treatment, rats were placed into individual polystyrene cages (27 cm long, 16 cm wide, and 25 cm high) for behavioral observation. […] For rats administered peptide by an ICV routes, rats are observed for two hours.
# Selected peptides were tested as in Example 5. Peptide was administered by IV routes, and used at dose levels ranging from 1 μg/kg to 1000 μg/kg.
# [5] = target: T6, MC1-R (B-16 mouse melanoma cells) (Mus musculus, UniProt Q01727); assay: cAMP functional assay for agonist/antagonist status, MC1-R; assay type: cell-based; details: for EC50: cAMP accumulation; for agonist/antagonist status as to MC1-R: cAMP assay; for efficacy relative to NDP-α-MSH, MC1-R: cAMP response ratio to NDP-α-MSH
# T6 construct: B-16 mouse melanoma cells (containing MC1-R); endogenous in cells; host or cells: B-16 mouse melanoma cells
# Procedure: Data analysis and EC50 values were determined using nonlinear regression analysis with Prism Graph-Pad software.
# The agonist/antagonist status with respect to MC1-R, MC4-R and MC5-R of certain peptides of the invention was determined.
# [6] = 1000 μg/kg IV, groups of 6 rats, one hour observation
# [7] = peak dose 300 μg/kg IV, groups of 6 rats
# T1 sequence (P32245 whole entry): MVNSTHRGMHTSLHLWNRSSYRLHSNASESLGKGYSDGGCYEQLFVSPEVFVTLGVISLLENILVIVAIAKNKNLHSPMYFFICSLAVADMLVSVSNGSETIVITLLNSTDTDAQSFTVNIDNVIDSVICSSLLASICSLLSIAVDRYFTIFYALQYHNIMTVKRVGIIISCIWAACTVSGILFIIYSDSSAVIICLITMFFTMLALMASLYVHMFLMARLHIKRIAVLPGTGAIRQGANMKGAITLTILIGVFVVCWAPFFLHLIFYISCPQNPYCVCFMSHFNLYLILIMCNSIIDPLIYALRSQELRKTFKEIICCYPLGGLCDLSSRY
# T5 sequence (P32245 whole entry): as above
# T4 sequence (P41968 whole entry): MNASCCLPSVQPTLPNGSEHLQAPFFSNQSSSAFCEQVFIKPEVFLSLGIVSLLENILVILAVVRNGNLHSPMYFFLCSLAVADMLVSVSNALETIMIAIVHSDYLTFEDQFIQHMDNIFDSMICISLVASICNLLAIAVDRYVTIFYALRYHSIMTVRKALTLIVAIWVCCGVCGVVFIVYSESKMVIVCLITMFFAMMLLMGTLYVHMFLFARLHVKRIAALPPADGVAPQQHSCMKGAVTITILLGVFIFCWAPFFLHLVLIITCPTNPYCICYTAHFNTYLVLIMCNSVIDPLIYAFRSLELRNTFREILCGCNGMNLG
# T2 sequence (P41968 whole entry): as above
# T6 sequence (Q01727 whole entry): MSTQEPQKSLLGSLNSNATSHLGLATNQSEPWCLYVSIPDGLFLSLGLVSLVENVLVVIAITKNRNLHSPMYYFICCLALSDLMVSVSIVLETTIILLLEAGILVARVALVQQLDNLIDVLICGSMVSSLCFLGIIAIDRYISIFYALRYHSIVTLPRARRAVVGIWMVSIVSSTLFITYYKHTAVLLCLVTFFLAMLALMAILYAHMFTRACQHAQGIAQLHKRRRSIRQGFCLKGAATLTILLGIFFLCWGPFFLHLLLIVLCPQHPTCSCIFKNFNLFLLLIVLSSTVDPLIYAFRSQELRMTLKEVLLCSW
# T3 sequence (P33032 whole entry): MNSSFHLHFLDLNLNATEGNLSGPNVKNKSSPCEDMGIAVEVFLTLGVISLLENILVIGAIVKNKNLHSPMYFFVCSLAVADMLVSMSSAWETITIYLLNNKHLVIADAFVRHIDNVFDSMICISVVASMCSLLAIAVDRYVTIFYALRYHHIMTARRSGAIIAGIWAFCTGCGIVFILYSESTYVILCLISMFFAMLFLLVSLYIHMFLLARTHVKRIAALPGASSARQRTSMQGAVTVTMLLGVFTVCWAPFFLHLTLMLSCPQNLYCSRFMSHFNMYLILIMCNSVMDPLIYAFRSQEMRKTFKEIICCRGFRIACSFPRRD
Structure (SMILES),Ki (MC4-R [1]) [nM],EC50 (hMC3-R (HEK-293 cells)) [nM],agonist/antagonist status as to MC3-R (hMC3-R (HEK-293 cells)),Ki (MC4-R [2]) [nM],Ki (hMC5-R) [nM],Ki (MC3-R [3]) [nM],Ki (MC3-R [4]) [nM],EC50 (hMC4-R (HEK-293 cells)) [nM],agonist/antagonist status as to MC4-R (hMC4-R (HEK-293 cells)),rats exhibiting at least one PE (male Sprague-Dawley rats; [6]) [%],"efficacy relative to NDP-α-MSH, MC3-R (hMC3-R (HEK-293 cells))",EC50 [5] [nM],agonist/antagonist status as to MC1-R [5],"efficacy relative to NDP-α-MSH, MC1-R [5]","efficacy relative to NDP-α-MSH, MC4-R (hMC4-R (HEK-293 cells))",PE effect at 300 μg/kg compared with 1000 μg/kg (male Sprague-Dawley rats; peak dose 300 μg/kg IV),mean PEs per rat (male Sprague-Dawley rats; [7]),rats exhibiting at least one PE (male Sprague-Dawley rats; [7]) [%]
"CCCC[C@H](NC(C)=O)C(=O)N[C@H]1CC(=O)NCCCC[C@@H](C(=O)NCC)NC(=O)[C@H](Cc2c[nH]c3ccccc23)NC(=O)[C@H](CCCNC(=N)N)NC(=O)[C@@H](Cc2ccccc2)NC(=O)[C@H](Cc2c[nH]cn2)NC1=O [Example 7, Ac-Nle-cyclo(-Asp-His-D-Phe-Arg-Trp-Lys)-NH—CH2—CH3]",0.34,3,agonist (response ratio compared to NDP-α-MSH of 0.7 and above were classified as full agonists),0.15,5,11,9,0.6,agonist (response ratio compared to NDP-α-MSH of 0.7 and above were classified as full agonists),100,–,–,–,–,–,–,–,–
"CCCC[C@H](NC(C)=O)C(=O)N[C@H]1CC(=O)NCCCC[C@@H](C(=O)N(C)C)NC(=O)[C@H](Cc2c[nH]c3ccccc23)NC(=O)[C@H](CCCNC(=N)N)NC(=O)[C@@H](Cc2ccccc2)NC(=O)[C@H](Cc2c[nH]cn2)NC1=O [Example 8, Ac-Nle-cyclo(-Asp-His-D-Phe-Arg-Trp-Lys)-N(CH3)2]",0.27,17,agonist (response ratio compared to NDP-α-MSH of 0.7 and above were classified as full agonists),0.5,7,8,–,0.2,agonist (response ratio compared to NDP-α-MSH of 0.7 and above were classified as full agonists),100,–,–,–,–,–,–,–,–
"CCCC[C@H](NC(C)=O)C(=O)N[C@H]1CC(=O)NCCCC[C@@H](C(=O)NCC)NC(=O)[C@H](Cc2cccc3ccccc23)NC(=O)[C@H](CCCNC(=N)N)NC(=O)[C@@H](Cc2ccccc2)NC(=O)[C@H](Cc2c[nH]cn2)NC1=O [Example 9, Ac-Nle-cyclo(-Asp-His-D-Phe-Arg-Nal 1-Lys)-NH—CH2—CH3]",–,208,agonist (response ratio compared to NDP-α-MSH of 0.7 and above were classified as full agonists),7,–,–,–,–,partial agonist (Peptides with a ratio from 0.1 to 0.7 were classified as partial agonists),100,1.0,8,partial agonist (Peptides with a ratio from 0.1 to 0.7 were classified as partial agonists),0.6,0.6,–,–,–
"CCCC[C@H](NC(C)=O)C(=O)N[C@H]1CC(=O)NCCCC[C@@H](C(=O)N(C)C)NC(=O)[C@H](Cc2cccc3ccccc23)NC(=O)[C@H](CCCNC(=N)N)NC(=O)[C@@H](Cc2ccccc2)NC(=O)[C@H](Cc2c[nH]c3ccccc23)NC1=O [Example 10, Ac-Nle-cyclo(-Asp-Trp-D-Phe-Arg-Nal 1-Lys)-N(CH3)2] (Ac-[Nle]DW[dF]R[1Nal]K-NMe2; lactam 2-7 (inferred))",–,–,inactive,50,–,–,> 1000,–,agonist (response ratio compared to NDP-α-MSH of 0.7 and above were classified as full agonists),–,–,2300,agonist (response ratio compared to NDP-α-MSH of 0.7 and above were classified as full agonists),1.1,0.8,–,–,–
"CCCC[C@H](NC(C)=O)C(=O)N[C@H]1CC(=O)NCCCC[C@@H](C(=O)N(C)C)NC(=O)[C@H](Cc2cccc3ccccc23)NC(=O)[C@H](CCCNC(=N)N)NC(=O)[C@@H](Cc2ccccc2)NC(=O)[C@H](Cc2c[nH]cn2)NC1=O [Example 11, Ac-Nle-cyclo(-Asp-His-D-Phe-Arg-Nal 1-Lys)-N(CH3)2]",–,394,agonist (response ratio compared to NDP-α-MSH of 0.7 and above were classified as full agonists),10,–,–,> 1000,–,agonist (response ratio compared to NDP-α-MSH of 0.7 and above were classified as full agonists),100,1.1,15,agonist (response ratio compared to NDP-α-MSH of 0.7 and above were classified as full agonists),0.8,0.7,the same,–,–
"CCNC(=O)[C@@H]1CCCCNC(=O)C[C@H](NC(C)=O)C(=O)N[C@@H](Cc2c[nH]cn2)C(=O)N[C@H](Cc2ccccc2)C(=O)N[C@@H](CCCNC(=N)N)C(=O)N[C@@H](Cc2c[nH]c3ccccc23)C(=O)N1 [Example 12, Ac-cyclo(-Asp-His-D-Phe-Arg-Trp-Lys)-NH—CH2—CH3]",–,283,agonist (response ratio compared to NDP-α-MSH of 0.7 and above were classified as full agonists),11,–,–,457,–,partial agonist (Peptides with a ratio from 0.1 to 0.7 were classified as partial agonists),–,1.0,64,partial agonist (Peptides with a ratio from 0.1 to 0.7 were classified as partial agonists),0.6,0.6,–,2.5,83

# From US8247530B2, “N-alkylated cyclic peptide melanocortin agonists” (Palatin Technologies, Inc., priority 2005, dated 2012)
